Assay results taken from patent US9587002B2, “Sequence of nucleotides and peptides GSE 24.2 of dyskerin, which can induce telomerase activity, method for obtaining same, therapeutic compositions and applications thereof” (CONSEJO SUPERIOR DE INVESTIGACIONES CIENTIFICAS, priority 2005, dated 2017).

Tests used:
telomerase [1] = molecular target: T1, telomerase (Homo sapiens, UniProt O14746); test: Telomerase activity (TRAP) of 293T cell lines treated with cisplatin; assay type: cell-based; parameters: endogenous in cells; host or cells: 293T cells stably transfected with empty pLNCX or pLNCX 24.2; conditions: 293T pLNCX cells; pre-treated 0.5 μg/ml 3 days, then 3 μg/ml, 7-day treatment
T1 sequence (O14746 whole entry): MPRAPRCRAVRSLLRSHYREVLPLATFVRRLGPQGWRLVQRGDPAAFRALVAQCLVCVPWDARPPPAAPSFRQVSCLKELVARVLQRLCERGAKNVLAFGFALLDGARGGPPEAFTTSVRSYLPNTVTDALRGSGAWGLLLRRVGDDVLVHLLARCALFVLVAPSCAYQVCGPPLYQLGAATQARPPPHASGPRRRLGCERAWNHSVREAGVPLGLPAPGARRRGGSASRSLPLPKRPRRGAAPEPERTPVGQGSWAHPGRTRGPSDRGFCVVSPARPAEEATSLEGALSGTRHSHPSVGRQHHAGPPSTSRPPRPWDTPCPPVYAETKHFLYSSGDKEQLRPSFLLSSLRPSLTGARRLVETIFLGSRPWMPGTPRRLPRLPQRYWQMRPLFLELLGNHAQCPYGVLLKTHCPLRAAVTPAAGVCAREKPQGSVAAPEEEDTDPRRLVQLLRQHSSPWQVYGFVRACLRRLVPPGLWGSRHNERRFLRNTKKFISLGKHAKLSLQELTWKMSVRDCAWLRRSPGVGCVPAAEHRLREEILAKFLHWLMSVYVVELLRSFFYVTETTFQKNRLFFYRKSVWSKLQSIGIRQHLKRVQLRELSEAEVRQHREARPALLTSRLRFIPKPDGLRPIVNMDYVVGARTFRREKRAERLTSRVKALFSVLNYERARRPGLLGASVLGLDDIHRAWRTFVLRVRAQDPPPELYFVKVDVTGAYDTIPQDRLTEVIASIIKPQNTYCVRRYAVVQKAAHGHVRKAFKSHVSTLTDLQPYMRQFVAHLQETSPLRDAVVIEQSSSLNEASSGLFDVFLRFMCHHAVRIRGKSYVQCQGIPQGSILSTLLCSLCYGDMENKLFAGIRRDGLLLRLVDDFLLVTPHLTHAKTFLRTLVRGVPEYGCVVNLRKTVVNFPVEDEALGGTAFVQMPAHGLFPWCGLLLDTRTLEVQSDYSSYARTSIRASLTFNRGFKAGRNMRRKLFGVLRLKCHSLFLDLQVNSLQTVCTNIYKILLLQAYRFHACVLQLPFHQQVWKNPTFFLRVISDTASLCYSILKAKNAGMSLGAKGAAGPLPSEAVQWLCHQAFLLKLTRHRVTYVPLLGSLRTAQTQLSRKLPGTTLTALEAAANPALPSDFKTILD
T1 sequence (O60832 2-514 partner limits assumed): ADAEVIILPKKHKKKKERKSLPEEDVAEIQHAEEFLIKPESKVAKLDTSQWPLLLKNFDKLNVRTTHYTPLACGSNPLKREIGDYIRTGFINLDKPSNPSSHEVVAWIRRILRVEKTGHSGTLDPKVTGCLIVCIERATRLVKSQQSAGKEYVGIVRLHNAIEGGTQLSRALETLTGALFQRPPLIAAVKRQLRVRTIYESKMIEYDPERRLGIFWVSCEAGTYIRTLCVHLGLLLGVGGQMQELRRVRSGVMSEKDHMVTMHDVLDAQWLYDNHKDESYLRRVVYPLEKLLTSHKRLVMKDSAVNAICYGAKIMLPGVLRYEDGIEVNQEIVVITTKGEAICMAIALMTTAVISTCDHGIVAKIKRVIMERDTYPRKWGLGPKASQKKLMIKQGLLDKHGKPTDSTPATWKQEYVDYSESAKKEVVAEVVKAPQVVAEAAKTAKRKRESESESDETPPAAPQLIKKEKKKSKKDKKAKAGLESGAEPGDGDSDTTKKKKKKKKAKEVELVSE
T1 sequence (Q9NPE3 whole entry partner): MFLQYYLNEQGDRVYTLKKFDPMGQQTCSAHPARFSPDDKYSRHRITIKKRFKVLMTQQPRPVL
T1 sequence (Q9NX24 whole entry partner): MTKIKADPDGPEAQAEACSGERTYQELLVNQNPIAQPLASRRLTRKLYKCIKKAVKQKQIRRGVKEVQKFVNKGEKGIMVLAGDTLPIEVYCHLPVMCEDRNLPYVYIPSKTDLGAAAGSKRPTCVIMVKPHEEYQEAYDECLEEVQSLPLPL
T1 sequence (Q9NY12 whole entry partner): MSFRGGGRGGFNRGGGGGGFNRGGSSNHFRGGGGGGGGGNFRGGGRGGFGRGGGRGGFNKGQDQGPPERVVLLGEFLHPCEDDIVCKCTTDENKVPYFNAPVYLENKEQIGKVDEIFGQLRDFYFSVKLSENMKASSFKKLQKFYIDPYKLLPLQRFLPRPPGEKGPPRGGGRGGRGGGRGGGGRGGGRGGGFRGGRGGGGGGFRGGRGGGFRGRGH
T1 sequence (Q9BUR4 whole entry partner): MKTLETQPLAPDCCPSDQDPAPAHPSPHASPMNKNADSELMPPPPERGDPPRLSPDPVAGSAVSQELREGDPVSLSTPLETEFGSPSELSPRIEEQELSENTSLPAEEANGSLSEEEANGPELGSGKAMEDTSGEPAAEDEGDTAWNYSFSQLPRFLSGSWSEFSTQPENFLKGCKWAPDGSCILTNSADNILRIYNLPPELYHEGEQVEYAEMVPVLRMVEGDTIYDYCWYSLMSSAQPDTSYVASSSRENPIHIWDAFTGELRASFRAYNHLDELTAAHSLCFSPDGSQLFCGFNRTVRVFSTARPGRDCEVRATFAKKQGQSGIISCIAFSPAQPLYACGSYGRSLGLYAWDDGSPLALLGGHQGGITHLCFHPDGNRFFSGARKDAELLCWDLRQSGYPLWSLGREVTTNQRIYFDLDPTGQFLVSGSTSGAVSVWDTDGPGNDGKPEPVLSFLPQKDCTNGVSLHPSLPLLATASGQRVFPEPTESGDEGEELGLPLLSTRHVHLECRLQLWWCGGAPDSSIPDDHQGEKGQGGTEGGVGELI
Method: FIG. 5.—Telomerase activity of the 293T cell lines: pLNCX and 24.2 following treatment with cisplatin. The cells were seeded in 60-mm plates, pre-treated with 0.5 μg/ml of cisplatin for 3 days and subsequently treated with cisplatin at a dose of 3 μg/ml […]. The telomerase activity was measured by means of the Intergen TRAPeze assay. The experiment was performed 3 times, with similar results.
To this end, an assay of telomerase activity was performed using the TRAP method with the pLNCX and pLNCX 24.2 cell lines (FIG. 5), pre-treating them for 3 days with 0.5 μg/ml of cisplatin; subsequently, they were treated with 3 μg/ml of cisplatin for 3 and 7 days. […]
Telomerase activity assay based on the TRAP method Wright et al., 1995). The telomerase activity was measured using the TRAPeze telomerase detection kit (Intergen) in accordance with the instruction manual. The protein concentration of each extract was quantified by means of the Bradford method using the BIORAD reagent and after performing a PCR in accordance with the manual instructions; polyacrylamide gel electrophoresis was performed with the reaction products under non-denaturing conditions and, subsequently, it was stained with Ethidium bromide for 30 minutes.

telomerase [2] = molecular target: T1, telomerase; conditions: different cell lines / G-quadruplex formation in telomeres; cited from earlier work
dyskerin = test: RT-PCR expression of dyskerin in 293T cell lines after cisplatin; assay type: cell-based, human; conditions: pLNCX and pLNCX 24.2 cells; 3 μg/ml, 3 and 7 days
Method: (§1) FIG. 7.—Expression levels of different genes related to telomerase in 293T cells: pLNCX and 24.2 following treatment with cisplatin. The cells were seeded in 60-mm plates, treated with 3 μg/ml of cDDP following pre-treatment with 0.5 μg/ml of cisplatin for 3 days and, subsequently, collected at the times specified in the figure (3 and 7 days). Following the extraction of RNA, RT-PCR was performed with oligos specific for hTERT, hTR and dyskerin in order to study the expression levels of the messenger RNAs. As a starting RNA control, oligos for the amplification of GAPDH were used.
(§2) One of the explanations for the lower sensitivity of pLNCX 24.2 cells to cisplatin could be a change in the levels of some of the components of the telomerase complex. Therefore, the expression levels of different genes involved in the telomerase complex and the effect that cisplatin had on their expression were studied. To this end, the pLNCX and pLNCX 24.2 cells were pre-treated with 0.5 μg/ml and treated with 3 μg/ml of cisplatin for 3 and 7 days. Using oligos specific for hTR, hTERT and dyskerin, the expression levels of these genes and the effect of cisplatin on said expression were studied. […] This change in the sensitivity to cisplatin could explain, at least partially, the difference in sensitivity in the telomerase activity assays.
(§3) Expression of genes by RT-PCR. […]

hTERT = test: RT-PCR expression of hTERT in 293T cell lines after cisplatin; assay type: cell-based, human; conditions: pLNCX cells; 3 μg/ml, 3 days of treatment
Method: as §1, §2, §3

hTR = test: RT-PCR expression of hTR in 293T cell lines after cisplatin; assay type: cell-based, human; conditions: pLNCX and pLNCX 24.2 cells; 3 μg/ml, 3 and 7 days
Method: as §1, §2, §3

N.N.[Cl][Pt][Cl] [cisplatin]
effect of cisplatin on telomerase activity (telomerase [1]): caused inhibition of telomerase activity
inhibition of telomerase activity (literature) (telomerase [2]): capable of inhibiting telomerase activity
effect of cisplatin on dyskerin expression (dyskerin): no effect
effect of cisplatin on hTERT expression (hTERT): reduction in the expression of hTERT
effect of cisplatin on hTR expression (hTR): no effect
